Test results taken from US5952464A, “Labelled peptide compounds” (Mallinckrodt Inc., priority 1994, dated 1999).

Experiments:
[1] = enzymatic stability in vitro in human serum; format: in vitro ADME
Experimental: The enzymatic stability of the four radioiodinated analogues (1), (2), (3) and (4) is determined in vitro in human serum in a conventional manner, showing that this stability is sufficient.

[2] = molecular target: neurotensin receptor sites; test: inhibition of [3H]neurotensin binding to guinea pig forebrain membranes
Experimental: Binding assays are performed by studying the inhibition of [^3 H]neurotensin binding to guinea pig forebrain membranes. The following results are obtained, using the unlabelled acetyl compound […]-OH (SEQ ID NO:4) (a) as the reference.

[3] = molecular target: human brain neurotensin receptors; settings: cited from earlier work
[4] = molecular target: rat brain synaptic membranes; settings: binding on rat brain synaptic membranes; cited from earlier work
[5] = cited from earlier work

| Substance | enzymatic stability [1] | pIC50 [2] | Kd ([3]; binding to human brain neurotensin receptors) [nM] | Kd [4] [nM] | in vivo half-life [5] | affinity of neurotensin receptors in human brain ([3]; preliminary experiments, Sadoul et al. 1984) |
| --- | --- | --- | --- | --- | --- | --- |
| (2-*I-phenyl)acetyl-^1 Arg-^2 Arg-^3 Pro-^4 Tyr-^5 Ile-^6 Leu-OH [(1)] | sufficient | 8.05 |  |  |  |  |
| 2-*I-benzoyl-^1 Arg-^2 Arg-^3 Pro-^4 Tyr-^5 Ile-^6 Leu-OH [(3)] | sufficient | 8.07 |  |  |  |  |
| 4-*I-benzoyl-^1 Arg-^2 Arg-^3 Pro-^4 Tyr-^5 Ile-^6 Leu-OH [(4)] | sufficient | 8.10 |  |  |  |  |
| mono-iodo derivative of neurotensin: mono-iodo derivative of neurotensin itself; only tyrosine-3 iodinated with 125-iodide |  |  | 0.26 | 0.2 | only a few minutes |  |
| (4*I-phenyl)acetyl-^1 Arg-^2 Arg-^3 Pro-^4 Tyr-^5 -Ile-^6 Leu-OH [(2)] | sufficient | 7.87 |  |  |  |  |
| monoiodo-[Trp^11 ]-neurotensin (QLYENKPRRPWIL; Neurotensin 125I on Tyr3; UniProt P30990 151-163, looked up, variant Y11W) [monoiodo-[Trp11]-neurotensin] |  |  |  | 0.1 | only a few minutes | low affinity |
